Test results taken from patent US7807844B2, “TGF-β gene expression inhibitor” (Nihon University, priority 2003, dated 2010).

How the values were obtained:
hTGF-β1 mRNA = assay: RT-PCR assay of hTGF-β1 mRNA in hVSMC; type: cell-based, human; details: for expression of hTGF-β1 mRNA: 10^−9 M, 24 hr, TPA induced
Protocol: Treatment with 50 ng/mL of TPA was used as a positive control. […] (A) Five microliters of PCR product was separated on a 1.5% agarose gel electrophoresis. […] Cultured cells were washed with PBS, dissolved in 800 μL of RNAzolB (Biotex Laboratories, Inc., Houston, Tex.), mixed with 80 μL of chloroform and centrifuged. The colorless upper aqueous phase was mixed with an equal volume of isopropanol to precipitate RNA. RNA pellet was washed twice with 500 μL of 75% ethanol and, after drying, dissolved in 10 μL of TE buffer. After denaturing at 65° C. for 15 min, the RNA sample was treated with 0.5 U DNase (Gibco) in 0.5 ml of DNase buffer (20 mM Tris-HCl pH 8.3, 50 mM KCl, 2.5 mM MgCl2) at room temperature for 45 min. DNase was denatured by adding 0.5 ml of 0.5M EDTA and heating at 98° C. for 10 min. RNA aliquots of an equal amount (1 μg/20 μL) were reverse transcribed to single stranded cDNAs using 2.5 U/20 μL of avian myeloblastosis virus reverse transcriptase (Takara Biochemicals, Osaka, Japan) in 10 mM Tris-HCl (pH 8.3), 5 mM MgCl2, 50 mM KCl, 1 mM deoxy NTPs and 2.5 μM random hexamers. Two microliters of the diluted cDNA product was made up to 25 μl by mixing with 10 mM Tris-HCl (pH 8.3), 50 mM KCl, 4 mM MgCl2, 0.025 U/μL Taq DNA polymerase (Takara Biochemicals, Osaka, Japan), and 0.2 μM each of the upstream sense primer and downstream antisense primer. […] For human 18S ribosomal RNA, the sense primer ([…] NO: 6) and the antisense primer ([NT] ID NO: 7) were used as the internal control. PCR was carried out with an automatic heat controller (Perkin Elmer, Foster, Calif.). The PCR conditions were: initial denaturation, at 94° C. for 2 min; 30 cycles of denaturation at 94° C. for 1 min, annealing at 58° C. for 1 min and extension at 72° C. for 1 min; last extension at 72° C. for 1 min. As an internal control, PCR with primers for 18S rRNA was included in each reaction. […] For semi-quantitative analysis of mRNA, the kinetics of PCR was monitored. […] The intensity of the bands was measured by computer analysis using NIH software.

hTGF-β1 promoter [1] = assay: Transient transfection and luciferase assay in hVSMC; type: cell-based, human; details: for expression of luciferase driven by hTGF-β1 promoter: 10^−9 M, 24 hr incubation
Protocol: One microgram of the luciferase gene which was controlled by the hTGF-β1 promoter was transfected for 6 hr in sterilized medium using lipofectin reagent. After 24 hr of the transfection, cells were incubated for 24 hr in a medium containing 0.5% CS in the presence (or absence) of the polyamide or the mismatched polyamide, and the luciferase activity was assayed in these cells extracts using a dual luciferase/reporter gene assay system. One hundred μL of luciferase substrate was mixed with 20 μL cell extracts. After the mixing, the reaction mixture was placed in a luminometer (Turner Designs-Bioblock, Illkirch, France), and the light emitted for ten seconds at room temperature was measured. PMA was used as a positive control. Comparison with the control *P<0.05.
(§1) The 2.2 kb fragment containing the hTGF-β1 promoter derived from plasmid phTBG 101 (non-patent document 10) was isolated and inserted to pGL3 basic plasmid (Promega, Madison, Wis.) at the upstream of the coding region of luciferase reporter gene. The accurate structure of the constructed plasmid was identified by spectral analysis with restriction enzymes analysis and sequencing.
hVSMC cells were cultured at a density of […] in 24 well plates in the presence of 10% CS. After 24 hr, the reporter gene that was driven by the hTGF-β1 promoter was transfected using Lipofectin reagent (GibcoBRL) in the presence of 1 μg DNA in the sterilized medium, according to the method indicated by the manufacturer. Cells were incubated with the DNA liposome complex for 6 hours, and then the medium was exchanged to 1 ml of fresh complete medium. […] After brief centrifugation, luciferase activity in the cell extracts was measured using a dual-luciferase reporter gene assay system (Promega, Madison, Wis.). […] After mixing, the reaction mixture was placed in a luminometer (Turner Designs-Bioblock, Illkirch, France), and the light emitted for ten seconds at room temperature was measured.

hTGF-β1 promoter [2] = assay: In vitro transcription reaction with HeLa nuclear extract; type: biochemical, human; details: HeLa nuclei extract, hTGF-β1 promoter template, 30° C., 60 min
Protocol: One microgram of a plasmid was incubated in the transcription buffer with 8 U of HeLa nucleus extract, 3 kinds of non-labeled nucleotide triphosphates (UTP, CTP, GTP) at […] each, and 25 μM α-^32P-ATP at 30° C. for 60 min. The reaction was terminated by adding 175 μl of HeLa extract stop solution, and then phenol-chloroform-isoamyl alcohol extraction and ethanol precipitation were carried out. Samples were re-suspended in 98% […] loading dye and heated at 90° C. for 10 min before loading a 6%, 7 M urea-polyacrylamide gel. The gel was dried and visualized by autoradiography;
as §1
In vitro transcription reactions were carried out using nuclear extracts of Hela cells and the in vitro transcription system (Promega, Madison, Wis.). […]

hTGF-β1 protein = assay: Western blot analysis of hTGF-β1 protein in hVSMC; type: cell-based, human; details: 10^−9 M, 24 hr incubation
Protocol: 10^−9 M of the polyamide was added to medium of cultured hVSMC and incubated for 24 hr. (A) The expression of hTGFβ1 protein was investigated by Western blot analysis.
Test VSMC and control VSMC were incubated in 6-well plates for 24 hr, washed twice with PBS and incubated on ice in 300 μL of lysis buffer (50 mM Tris-HCl (pH 8.0), 150 mM NaCl, 1 mM EDTA, 1 mM phenylmethylsulfonyl fluoride, 1 μg/mL aprotinin, 1% Triton X-100) for 30 min. Cells were scraped into a 1.5 mL tube and centrifuged, and the supernatant was collected. The protein content of the supernatant was assayed by Bradford protein assay using BIO-RAD protein assay kit (Bio-Rad Lab, Hercules, Calif.). The supernatant contained 20 μg of total protein, which was denatured at 100° C. for 3 min in the loading buffer, electrophoresed on a 10% polyacrylamide gel and transferred to a nitrocellulose membrane. The membrane was incubated at room temperature for 1 hr with mouse monoclonal antibody with specificity to hTGF-β1 (1:500) (R&D systems, Minneapolis, Minn.), and then incubated at room temperature for 1 hr with anti-mouse HRP conjugated secondary antibody at 1:2000. After washing sufficiently, the membrane was incubated with an […] luminescence substrate (Amersham Life Service, Buckinghamshire, UK) and exposed to an X-ray film.

[3] = tested on: double stranded oligonucleotide corresponding to the base pairs from −548 to −537 of hTGF-β1 promoter; assay: Gel-shift assay: binding of polyamide to double stranded oligonucleotide; design: species or system human; details: binding buffer, 37° C., 15 min; 20% polyacrylamide gel, autoradiography
Protocol: The double stranded DNA corresponding to the base pair sequence from −548 to −537 of the hTGF-β1 promoter (FIG. 1) was labeled by T4 polynucleotide using [γ-^32P]-ATP and incubated in a binding buffer at 37° C. for 15 min together with mismatch polyamide (lane 0) or with increasing amount of the polyamide (lane 1, 2 and 3 was 1 nM, 2 nM and 4 nM, respectively). The complexes thus obtained were electrophoresed on a 20% polyacrylamide gel and visualized by autoradiography.
Oligonucleotides were synthesized, annealed, and 12 kinds of double stranded oligonucleotides were produced corresponding to the base pairs from −548 to −537 of hTGF-β1 promoter (FIG. 1A). The double stranded DNAs were labeled with [γ-^32P]-ATP using T4 polynucleotide kinase, and incubated in a binding buffer (40 mM Tris, pH 7.9, 250 mM NaCl, 25 mM EDTA, 25 mM DTT, 100 mM KCl) with the polyamides or mismatched polyamides at 37° C. for 15 min. The complexes thus obtained were electrophoresed by 20% polyacrylamide gel and visualized by autoradiography.

Protocol for cultured hVSMC: FITC labeled polyamide was added directly to the culture medium at the concentration of 10^−9 M and observed under a fluorescent microscope.
hVSMC was obtained from Clonetics (Walkersville, Md.). hVSMC was cultured in Dulbecco's modified Eagle's medium (DMEM) containing 10% calf serum (Gibco Life Technologies, Gaithersburg, Md.), 100 U/ml penicillin and 100 mg/ml streptomycin. Cells were passaged by trypsin treatment with 0.05% trypsin (Gibco) in Ca^2+-free and Mg^2+-free phosphate buffered saline (PBS) and cultured in 75-cm^2 tissue culture flasks. The medium was exchanged every four or five days, and experiments were carried out on cells during 5-10 passages.
Passaged hVSMC was cultured at a density of 10^5/cm^2 for 24 hr in a 24-well flask. FITC-labeled polyamides were directly added to the medium at a concentration of 10^−9 M and observed every one hour under a florescent microscope.

| Compound | expression of hTGF-β1 mRNA (positive control) (hTGF-β1 mRNA; 50 ng/mL) | expression of luciferase driven by hTGF-β1 promoter (positive control) (hTGF-β1 promoter [1]; positive control) | detection of FITC in the nuclei of cultured hVSMC (cultured hVSMC) | time FITC labeled polyamide remains in the nucleus of cultured hVSMC (cultured hVSMC) | transcription in in vitro transcription system (hTGF-β1 promoter [2]) | expression of hTGF-β1 protein (hTGF-β1 protein) | expression of hTGF-β1 mRNA (hTGF-β1 mRNA) | binding to the corresponding 12 base pairs double stranded oligonucleotide [3] | expression of luciferase driven by hTGF-β1 promoter (hTGF-β1 promoter [1]) |
| --- | --- | --- | --- | --- | --- | --- | --- | --- | --- |
| CCCCCCCCCCCCCC(=O)O[C@@H]1[C@@H](C)[C@@]2(O)[C@@H](C=C(CO)C[C@]3(O)C(=O)C(C)=C[C@@H]23)[C@H]2C(C)(C)[C@]12OC(C)=O [TPA] | significantly stimulated the expression of hTGF-β1 mRNA | stimulated the expression of luciferase protein | – | – | – | – | – | – | – |
| CN(C)CCCNC(=O)CCNC(=O)c1cc(NC(=O)c2cc(NC(=O)CCNC(=O)c3cc(NC(=O)c4cc(NC(=O)c5cc(NC(=O)CCCNC(=O)c6cc(NC(=O)c7cc(NC(=O)c8nc(NC(=O)CCNC(=O)c9cc(NC(=O)c%10cc(NC(=O)c%11nc(NC(=O)CCNC(=S)Nc%12ccc%13c(c%12)C(=O)OC%13%12c%13ccc(O)cc%13Oc%13cc(O)ccc%13%12)cn%11C)cn%10C)cn9C)cn8C)cn7C)cn6C)cn5C)cn4C)cn3C)cn2C)cn1C [compound 4a, FITC-β-IPP-β-IPP-γ-PPP-β-PP-β Dp] | – | – | detected in the nuclei of cultured hVSMC at a high density | more than 48 hr | – | – | – | – | – |
| CC(=O)Nc1cn(C)c(C(=O)Nc2cc(C(=O)Nc3cc(C(=O)NCCC(=O)Nc4cn(C)c(C(=O)Nc5cc(C(=O)Nc6cc(C(=O)NCCCC(=O)Nc7cc(C(=O)Nc8cc(C(=O)Nc9cc(C(=O)NCCC(=O)Nc%10cc(C(=O)Nc%11cc(C(=O)NCCC(=O)O)n(C)c%11)n(C)c%10)n(C)c9)n(C)c8)n(C)c7)n(C)c6)n(C)c5)n4)n(C)c3)n(C)c2)n1 [compound 4b, Ac-IPP-β-IPP-γ-PPP-β-PP-βCOOH] | – | – | – | – | reduce transcription | inhibited the expression of hTGF-β1 protein | inhibited the expression of hTGF-β1 mRNA induced by TPA | able to bind | significantly downregulated the expression of luciferase |
| Ac-PPP-β-IPP-γ-PPP-β-COOH [mismatch polyamide] | – | – | – | – | did not show any significant effect | – | did not | failed to bind | had no effect |
